Calls of active or inactive are those of the source. The calls are words filed in the database; no cut-off is given here.
Key:
Pseudomonas aeruginosa [1] = experiment: Potentiation of meropenem-induced antibacterial activity against Pseudomonas aeruginosa W35 expressing VIM-2 assessed as fold reduction meropenem MIC at 10 ug/ml incubated for 18 to 20 hrs in presence of meropenem by CLSI based broth microtiter dilution method; format: functional; conditions: dose 10 µg/ml; time 18-20 hrs
[2] = Toxicity in ip dosed ICR mouse assessed as maximum tolerated dose administered for 14 days; format: organism-based; conditions: in vivo, time 14 day
Escherichia coli [3] = experiment: Antibacterial activity against Escherichia coli C1580 expressing VIM-2 assessed as elongated and filamentous bacterial cells at 20 ug/ml incubated for 1 hr in presence of meropenem by confocal microscopy; format: functional, organism-based; conditions: dose 20.0 µg/ml
Pseudomonas aeruginosa [4] = experiment: Potentiation of meropenem-induced antibacterial activity against Pseudomonas aeruginosa W35 expressing VIM-2 assessed as meropenem MIC at 100 ug/ml incubated for 18 to 20 hrs in presence of meropenem by CLSI based broth microtiter dilution method (reference value: 64 ug/ml); format: functional; conditions: dose 100 µg/ml, time 18-20 hrs
Escherichia coli [5] = experiment: Synergistic antibacterial activity against Escherichia coli C1541 expressing VIM-2 assessed as fractional inhibitory concentration index incubated for 18 to 20 hrs in presence of meropenem and 1 uM of zinc sulfate by checkerboard microdilution assay; format: functional; conditions: time 18-20 hrs
Escherichia coli [6] = experiment: Synergistic antibacterial activity against Escherichia coli C1541 expressing VIM-2 assessed as fractional inhibitory concentration index incubated for 18 to 20 hrs in presence of meropenem and 100 uM of zinc sulfate by checkerboard microdilution assay; format: functional; conditions: time 18-20 hrs
[7] = Inhibition of bacterial VIM-2 (27 to 266 residues) expressed in Escherichia coli Transetta (DE3) using FC-5 as substrate preincubated with enzyme for 10 mins followed by substrate addition by fluorescence based analysis; parameters: species or system Bacteria
[8] = Toxicity in ICR mouse assessed as effect on histological architecture of spleen at 500 to 2000 mg/kg, ip administered for 14 days by hematoxylin and eosin staining based histopathological assay; format: organism-based; conditions: in vivo, 336 h, dose 500-2000 mg/kg, time 14 day
Pseudomonas aeruginosa [9] = experiment: Potentiation of meropenem-induced antibacterial activity against Pseudomonas aeruginosa 5621 expressing VIM-2 assessed as fold reduction in meropenem MIC at 100 ug/ml incubated for 18 to 20 hrs by CLSI based broth microtiter dilution method; format: functional; conditions: dose 100 µg/ml; time 18-20 hrs
Escherichia coli [10] = experiment: Potentiation of meropenem-induced antibacterial activity against Escherichia coli C1580 expressing VIM-2 assessed as meropenem MIC at 10 ug/ml incubated for 18 to 20 hrs by CLSI based broth microtiter dilution method (reference value: 32 ug/ml); format: functional; conditions: dose 10 µg/ml, time 18-20 hrs
[11] = Inhibition of bacterial recombinant full length N-terminal-TEV-His6-tagged VIM-5 expressed in Escherichia coli Transetta using FC-5 as substrate preincubated with enzyme for 10 mins followed by substrate addition by fluorescence based analysis; parameters: species or system Bacteria
[12] = Toxicity in ICR mouse assessed as effect on histological architecture of kidney at 500 to 2000 mg/kg, ip administered for 14 days by hematoxylin and eosin staining based histopathological assay; format: organism-based; conditions: in vivo, 336 h, dose 500-2000 mg/kg, time 14 day
[13] = Solubility of the compound in water; format: physicochemical

In the case of `O=C(O)c1nccn1Cc1ccncc1`, the “fold change (FC)” value (Pseudomonas aeruginosa [1]) is reported as 4, the MTD at 336 h [2] is reported as at most 2000 mg/kg and the Activity (Escherichia coli [3]) is reported as “Active”. For the same compound, the MIC (Pseudomonas aeruginosa [4]) was 4 µg/mL, the “fractional inhibitory concentration index (FICI)” value (Escherichia coli [5]) was 0.05 and the “fractional inhibitory concentration index (FICI)” value (Escherichia coli [6]) was 0.05. For the same compound, the IC50 [7] was 0.56 µM, the Activity [8] was “Non-Toxic” and the “fold change (FC)” value (Pseudomonas aeruginosa [9]) was 2. The MIC (Escherichia coli [10]) was 1 µg/mL, the IC50 [11] was 5.78 µM and the Activity [12] was “Non-Toxic”. The solubility [13] was over 20 mg/mL.
